Experiments:
[1] = test system: N-STZ-1.5 rat (model of type 2 diabetes with sulfonylurea secondary failure); assay: Oral glucose loading in N-STZ-1.5 rats with sulfonylurea secondary failure (Experimental Example 1); format: in vivo; conditions: for Increment of plasma insulin level: rats pretreated with glibenclamide for 4 weeks; for plasma glucose level-lowering effect (in words) / plasma insulin level-elevating effect (in words): type 2 diabetic rat with sulfonylurea secondary failure; for plasma glucose level-lowering effect (in words): summary of Table 1; for plasma insulin level-elevating effect (in words): summary of Table 2 and Table 3
Experimental: (§1) Streptozocin (STZ) (120 mg/kg bodyweight) was administered to a 1.5-day-old male WKY rat to obtain a type 2 diabetes model, N-STZ-1.5 rat.
N-STZ-1.5 rats (male, 24 animals) received orally glibenclamide (10 mg/kg bodyweight/day) for 4 weeks to become a model of type 2 diabetes with sulfonylurea secondary failure. Then, the rats were divided into 4 groups of Groups A to D (6 animals each).
Then, each rat received orally 1 g/kg bodyweight of glucose solution. Before administration of glucose (before and after administration of the test compound) and 10 and 60 minutes after administration of glucose solution, blood samples were taken from the caudal vein of the rat and then the plasma glucose level and the plasma insulin level were determined.
The plasma glucose level was determined by an enzymatic method using L type WakoGlu2 (trade name, Wako Pure Chemical Industries, Ltd.), and the plasma insulin level was determined by radioimmunoassay using Shionoria Insulin Kit (trade name, Shionogi & Co., Ltd.).
The increment of plasma glucose level 60 minutes after administration of glucose solution (from 0 to 60 minutes after sugar loading); the increment of plasma insulin level 10 minutes after administration of glucose solution (from before administration of the test compound to 10 minutes after sugar loading); and the increment of plasma insulin level 10 minutes after administration of glucose solution (from 0 to 60 minutes after sugar loading) are shown in Table 1, Table 2 and Table 3, respectively. The values in the tables are mean values (n=6).

[2] = test system: N-STZ-1.5 rat (type 2 diabetes model); assay: Oral glucose loading in N-STZ-1.5 rats after 4 weeks of methylcellulose (Group M) or glibenclamide (Group G) (Experimental Example 2); format: in vivo; conditions: for Increment of plasma insulin level / Increment of plasma glucose level: oral glibenclamide 10 mg/kg, mean, n=6; for Increment of plasma insulin level: 10 minutes after oral glucose 1 g/kg (from 0 to 60 minutes after sugar loading); for Increment of plasma glucose level: 60 minutes after oral glucose 1 g/kg; for plasma glucose level-lowering effect (in words): summary of Table 4; for plasma insulin level-elevating effect (in words): summary of Table 5
Experimental: as §1
N-STZ-1.5 rats (male, 24 animals) prepared in Experimental Example 1 were divided into 4 groups (6 animals each), of which 2 groups (hereinafter sometimes referred to as Group M) and the remaining 2 groups (hereinafter sometimes referred to as Group G) received orally a 0.5% methylcellulose suspension and glibenclamide (10 mg/kg bodyweight) respectively, for 4 weeks. After repeated administration for 4 weeks, one Group M and one Group G (control groups) received orally a 0.5% methylcellulose suspension and the other Group M and the other Group G received orally glibenclamide (10 mg/kg bodyweight).
Then, each rat received orally 1 g/kg bodyweight of glucose solution. Before administration of glucose solution and 10 and 60 minutes after the administration, blood samples were taken from the caudal vein of the rat and then the plasma glucose level and the plasma insulin level were determined.
The plasma glucose level and the plasma insulin level were determined in the same manner as in Experimental Example 1.
The increment of plasma glucose level 60 minutes after administration of glucose solution (from 0 to 60 minutes after sugar loading) and the increment of plasma insulin level 10 minutes after administration of glucose solution (from 0 to 60 minutes after sugar loading) are shown in Table 4 and Table 5, respectively. The values in the tables are mean values (n=6).

[3] = 10 minutes after oral glucose 1 g/kg (from before administration of the test compound to 10 min after sugar loading), oral glibenclamide 10 mg/kg, nateglinide 50 mg/kg, Compound A 3 mg/kg, mean, n=6
[4] = Group G (glibenclamide 10 mg/kg for 4 weeks)
[5] = Group M (0.5% methylcellulose for 4 weeks)

Row | Compound | Increment of plasma insulin level [1, 3] | plasma glucose level-lowering effect (in words) [1] | plasma insulin level-elevating effect (in words) [1] | Increment of plasma insulin level [2, 4] | Increment of plasma glucose level [2, 4] | plasma glucose level-lowering effect (in words) ([2]; Group G) | plasma insulin level-elevating effect (in words) ([2]; Group G) | Increment of plasma insulin level [2, 5] | Increment of plasma glucose level [2, 5] | plasma glucose level-lowering effect (in words) ([2]; Group M) | plasma insulin level-elevating effect (in words) ([2]; Group M) | Increment of plasma insulin level ([1]; 10 minutes after oral glucose 1 g/kg (from 0 to 60 minutes after sugar loading), oral glibenclamide 10 mg/kg, nateglinide 50 mg/kg, Compound A 3 mg/kg, mean, n=6) | Increment of plasma glucose level ([1]; 60 minutes after oral glucose 1 g/kg (0 to 60 min after sugar loading), rats pretreated with glibenclamide 10 mg/kg/day for 4 weeks, oral glibenclamide 10 mg/kg, nateglinide 50 mg/kg, Compound A 3 mg/kg, mean, n=6)
1 | COc1ccc(Cl)cc1C(=O)NCCc1ccc(S(=O)(=O)NC(=O)NC2CCCCC2)cc1 [glibenclamide] | 18.03 μU/ml | no plasma glucose level-lowering effect | hardly plasma insulin level-elevating effect | 22.76 μU/ml | 180.65 mg/dL | the effect was not shown | the effect was not shown | 49.70 μU/ml | 51.72 mg/dL | showed plasma glucose level-lowering effect | showed plasma insulin level-elevating effect | – | –
2 | CC(C)[C@H]1CC[C@H](C(=O)N[C@H](Cc2ccccc2)C(=O)O)CC1 [nateglinide] | 18.76 μU/ml | no plasma glucose level-lowering effect | hardly plasma insulin level-elevating effect | – | – | – | – | – | – | – | – | 16.78 μU/ml | 185.95 mg/dL

— patent publication US20070072810A1, “Agent for treating diabetes” (Takeda Pharmaceutical Company, Limited, priority 2003, published 2007)
